# Like-named read-outs stand apart in the source and are kept apart here.
# Key:
# JAK/STAT = JAK/STAT transcription assay (SIE-bla ME-180 cell line); assay type: cell-based
# Source text: (§1) In these assays, the trifluoroacetic salt form of WX-024 was used.
# PI3K/AKT/FOXO = PI3K/AKT/FOXO transcription assay (TREx FOXO3-DBE-bla HeLa cell line); assay type: cell-based
# Source text: as §1
# TGF-beta = TGF-beta transcription assay (SBE-bla HEK 293T cell line); assay type: cell-based
# Source text: as §1
# Colo320DM tumor cells = experiment: Colo320DM colon cancer xenograft model in BALB/c nude mice; assay type: in vivo; conditions: for tumor volume (mean±standard error of mean) / tumor volume smaller than vehicle-treated group: Day 14
# Experimental: Based on the favorable PK profile of WX-024 in mice, as described above, the efficacy of WX-024 was investigated in a mouse xenograft colon cancer model. The Colo320DM colon cancer model in BALB/c nude mice was employed, in which Colo320DM cells are injected subcutaneously into BALB/c nude mice.
# Colo320DM tumor cells (ATCC) were cultured in RPMI1640 medium (GIBCO, Cat #31800022) supplemented with 10% heat-inactivated fetal bovine serum at 37° C. Harvesting of Colo320DM cells was done when cells were growing in an exponential growth phase. Female BALB/c nude mice (Shanghai Laboratory Animal Center) were used for the study at 6-8 weeks of age. Animals had free access to water and irradiation sterilized food throughout the study period. Each mouse (n=16) was inoculated subcutaneously in the right flank region with 5×10^6 Colo320DM tumor cells in 0.1 mL of PBS. Tumors were allowed to develop for 14 days after inoculation, at which time the mean tumor size was 156.78 mm^3. During the study, the care and use of animals was conducted in accordance with the Association for Assessment and Accreditation of Laboratory Animal Care (AAALAC). Following inoculation of tumor cells, animals were checked daily for morbidity and mortality. The body weight of each animal was monitored throughout the study.
# 4% ethanol+8% Tween 80+88% 10 mM PBS was used as a vehicle. All treatments were administered once daily. The WX-024 solution was dissolved in pure DMSO and then diluted with sterile water. The dosing volume was adjusted for body weight such that the dosing volume for each animal was 0.05 mL/10 g of body weight for i.v. dosing. The treatment period was 14 days.
# All treatments were begun as daily i.v. dosing. […] The injection method was changed to i.p. injection at Day 7 for the 10 mg/kg and 15 mg/kg groups. Dosing via i.p. injection (with the dosing volume adjusted to 0.1 ml/10 g) was maintained for the 10 and 15 mg/kg groups from Day 7 of the treatment period onwards, and the body weight of these animals stabilized.
# Tumor volumes were measured in two dimensions using a caliper at Days 0, 3, 5, 7, 9, 11, 14 of the treatment period (all dosing starting after 14 days of tumor development). The volume of the tumor was measured using the equation: V=0.5 a×b^2, wherein a and b are the long and short diameters of the tumor, respectively. Tumor volumes are expressed in mm^3. At the end of the study (i.e., following 22 days of treatment) the tumor mass weight was measured.
# At the conclusion of the Colo320DM model, tumor and intestinal samples were collected, fixed in formalin, and imbedded in paraffin using standard techniques. Four μm-thick section of tissue were prepared for immunohistochemistry (IHC) staining. The tissue sections were deparaffinized and rehydrated via sequential washing with xylene, graded ethanol and phosphate-buffered saline (PBS). Following deparaffinization and rehydration, the tissue sections were subjected to high temperature-induced epitope retrieval in target retrieval solution (10 mM citrate buffer; pH 6.0).
# Antibody binding was detected using an UltraVision Quanto Detection System (Thermo, Cat #TL-060-QHD) kit following the manufacturer's instructions. The sections were treated with Hydrogen Peroxide Block and Ultra V Block (provided in the kit) and then incubated with primary antibody overnight at 4° C.: CD44 (Abcam, Cat #ab157107 diluted 1:500), Axin (LSBio, Rabbit IgG, Cat #LS-B7029, Lot #51907, Stock Conc.: 1000 ug/ml), or VEGFA (VEGFA: LS Bio, Rabbit IgG, Cat #LS-B10263, Lot #65323, Stock Conc.: 1000 ug/ml). Rabbit IgG replaced the primary antibody in the negative control. All sections were counterstained with hematoxylin, dehydrated and mounted. IHC images were taken with an Olympus CKX31SF reverse microscope.
# [1] = tested on: patient derived colon cancer cells; experiment: Patient derived xenograft (PDX) colon cancer model in NOD/SCID mice; assay type: in vivo; conditions: 15 mg/kg i.v. daily
# Source text: To assess whether WX-024 is also applicable to tumor derived from human patients, a xenograft animal model inoculated with patient derived colon cancer cells was exposed to WX-024. Samples derived from four different colon cancer patients were screened for biomarkers that indicate an elevated level of canonical Wnt/β-catenin signaling. […] The samples were also stained for nuclear co-localization of BCL9 and β-catenin. […] Male NOD/SCID mice at about 5 weeks of age were […] with colon cancer cells derived from patient #8. Briefly, the selected CRC tumor samples from FIG. 28A were sliced into 3 mm^3 fragments and subcutaneously implanted onto the right flank of NOD/SCID mice. […] Each moue was given a daily intravenous administration for more than 31 days. […] At the end of the study, the mice were sacrificed and tumor samples were collected.
# in vivo = conditions: male, ICR, mouse
# Experimental: The tail vein was used for i.v. injections. […] Following injections, blood samples were obtained via the retro-orbital vein at 5 min, 1, 2, 4, 6, 8, 12, and 24 hours postdose. Plasma was obtained from the blood samples following mixing with sodium heparin and centrifugation.
# LC analysis was done using an Agilent 100 HPLC. MS analysis was done using an AB Sciex API 4000. Calibration standards were prepared by serial dilution.
# The maximum observed concentration (Cmax), terminal half-life (T1/2), total body clearance (CL), volume of distribution (Vz), area under the curve from the time of dosing to the last measurable concentration (AUC0-t), area under the curve from the time of dosing extrapolated to infinity (AUC0-inf), and bioavailability were calculated using noncompartmental analysis modules in the FDA-certified pharmacokinetic program WinNonlin Professional v5.2 (Pharsight).
# Briefly, the mice were administered 1 mg/kg or 5 mg/kg intravenously, or 5 mg/kg intraperitoneally. Blood samples were collected at 15 min, 1, 2, 3, 6, 8, 12, and 24 hours post administration.
compound,measurement,setting,value
"CC[C@H](C)[C@@H]1NC(=O)[C@@](C)(NC(=O)[C@H](CCCNC(=N)N)NC(=O)[C@H](CC(C)C)NC(=O)[C@@H](NC(=O)[C@H](CCC(N)=O)NC(=O)[C@H](CC(C)C)NC(C)=O)[C@@H](C)O)CCCC=CCCC[C@@](C)(C(=O)N[C@@H](CC(C)C)C(=O)N[C@@H](Cc2ccc3ccccc3c2)C(N)=O)NC(=O)[C@H](CCCNC(=N)N)NC(=O)[C@H](CCC(N)=O)NC1=O [WX-024, LQTLRXaa1IQRXaa2L]",IC50,"JAK/STAT; Example 4.5, read-out: IC50, JAK/STAT transcription assay",> 10000 nM
same,IC50,"JAK/STAT; summary, Example 6, read-out: IC50, JAK/STAT reporter assay",> 100 nM
same,IC50,"PI3K/AKT/FOXO; Example 4.5, read-out: IC50, PI3K/AKT/FOXO transcription assay",> 10000 nM
same,IC50,"PI3K/AKT/FOXO; TREx FOXO3-DBE-bla HeLa, Insulin stimulation, trifluoroacetic salt form, read-out: IC50 (nM), PI3K/AKT/FOXO3 pathway",> 1000 nM
same,IC50,"PI3K/AKT/FOXO; summary, Example 6, read-out: IC50, PI3K/AKT/FOXO3 reporter assay",> 100 nM
same,IC50,"TGF-beta; Example 4.5, read-out: IC50, TGF-beta transcription assay",> 10000 nM
same,IC50,"TGF-beta; SBE-bla HEK 293T, TGF-beta 1 stimulation, trifluoroacetic salt form, read-out: IC50 (nM), TGF-beta pathway",> 3160 nM
same,IC50,"TGF-beta; summary, Example 6, read-out: IC50, TGF-0 reporter assay",> 100 nM
same,effect on body weight,Colo320DM tumor cells; 5 mg/kg i.v. throughout the study,without an apparent effect on body weight
same,tumor volume (mean±standard error of mean),Colo320DM tumor cells; 5 mg/kg,2039±373.29 mm^3
same,tumor volume (mean±standard error of mean),Colo320DM tumor cells; 10 mg/kg (i.v. then i.p. from Day 7),1370±114.39 mm^3
same,intestinal morphology,"Colo320DM tumor cells; 10 mg/kg or 15 mg/kg, 22 days",maintained
same,tumor volume smaller than vehicle-treated group,Colo320DM tumor cells; 10 mg/kg,44.9%
same,tumor volume (mean±standard error of mean),Colo320DM tumor cells; 15 mg/kg (i.v. then i.p. from Day 7),1157.6±99.04 mm^3
same,average body weight loss compared to vehicle,"Colo320DM tumor cells; 15 mg/kg i.v. daily, after 3 days of treatment",approximately 11%
same,Axin 2 staining of intestine,"Colo320DM tumor cells; 15 mg/kg, 22 days",decreased Axin 2 staining
same,CD44 staining of tumor,"Colo320DM tumor cells; 15 mg/kg, 22 days",decrease in CD44 staining
same,tumor volume smaller than vehicle-treated group,Colo320DM tumor cells; 15 mg/kg,53.2%
same,tumor mass weight,"Colo320DM tumor cells; 10 or 15 mg/kg, 22 days of treatment",substantially less than tumor mass of vehicle-treated mice
same,"IC50, preliminary dose-response correlation with predicted tumor size",Colo320DM tumor cells; Colo320DM xenograft,12.69 mg/kg
same,VEGFA expression in tumors,Colo320DM tumor cells; immunohistochemistry,capable of suppressing VEGFA expression in tumors
same,CD44 expression in tumor samples,[1],capable of reducing CD44 expression
same,average tumor growth inhibition rate,[1]; after 31 days of dosing,75.6%
same,half-life,in vivo,2.4 to 2.5 h
